Source: ChEMBL document CHEMBL5614434, “A Lysosome-Targeting hNEU1 Inhibitor Treats Myocardial Infarction: A Potential Therapeutic Breakthrough” (J Med Chem, 2024)
Activity calls are given as the source filed them. No cut-off for these calls is given here.

Tests used:
[1] = Drug uptake in lysosomes of rat H9c2 cells assessed as time required for compound concentration in lysosomes to exceed the cell lysates by HPLC analysis; format: ADME, subcellular, Lysosome
[2] = test system: H9c2; test: Cytotoxicity against rat H9c2 cells assessed as cell viability at 0.001 to 50 uM under normoxia condition by CCK-8 method; format: toxicity, cell-based; conditions: h9c2, 50 µM, dose 0.001-50 µM
[3] = Toxicity in isoproterenol-induced male C57/6J mouse model assessed as recovery of growth rate at 15 mg/kg, ip pretreated with isoproterenol for 3 days followed by compound addition and measured after 3 days; format: organism-based; conditions: in vivo, 72 h, time 3 day
[4] = Permeability of compound in MDCK cells; format: ADME, cell-based, Canis lupus familiaris; conditions: dog, read-out: permeability
[5] = Metabolic stability in mouse liver microsomes assessed as parent compound remaining measured after 60 mins in presence of NADPH regenerating system by LC-MS/MS analysis; format: ADME, Microsome; conditions: read-out: Stability
[6] = AUClast in male C57/6J mouse at 15 mg/kg, ip measured upto 24 hrs by LC-MS/MS analysis; format: ADME, organism-based; conditions: in vivo
[7] = test system: Mus musculus; test: Cardioprotective activity against isoproterenol-induced myocardial injury in C57/6J mouse model assessed as decrease in CK-MB level in serum at 15 mg/kg, ip pretreated with isoproterenol for 3 days followed by compound addition and measured after 3 days by automatic biochemical analysis; format: functional, organism-based; conditions: time 3.0 day
[8] = test system: H9c2; test: Induction of autophagy in isoproterenol-induced rat H9c2 cells assessed as downregulation of PARP1 expression by Western blot analysis; format: functional, cell-based
[9] = test system: Mus musculus; test: Cardioprotective activity against isoproterenol-induced myocardial injury in C57/6J mouse model assessed as reduction in eosinophil ratio at 15 mg/kg, ip pretreated with isoproterenol for 3 days followed by compound addition and measured after 3 days; format: functional, organism-based; conditions: time 3.0 day
[10] = test system: Mus musculus; test: Cardioprotective activity against isoproterenol-induced myocardial injury in C57/6J mouse model assessed as reduction in pericardial thickness at 15 mg/kg, ip pretreated with isoproterenol for 3 days followed by compound addition and measured after 3 days by masson staining based analysis; format: functional, organism-based; conditions: time 3.0 day
[11] = Passive permeability in MDCK cells; format: ADME, cell-based, Canis lupus familiaris; conditions: dog, read-out: permeability
[12] = Observed MRT(infinity) in male C57/6J mouse at 15 mg/kg, ip measured upto 24 hrs by LC-MS/MS analysis; format: ADME, organism-based; conditions: in vivo
[13] = Tmax in male C57/6J mouse at 15 mg/kg, ip measured upto 24 hrs by LC-MS/MS analysis; format: ADME, organism-based; conditions: in vivo
[14] = Apparent […] clearance in male C57/6J mouse at 15 mg/kg, ip measured upto 24 hrs by LC-MS/MS analysis; format: ADME, organism-based; conditions: in vivo
[15] = test system: Mus musculus; test: Cardioprotective activity against isoproterenol-induced myocardial injury in C57/6J mouse model assessed as reduction in eosinophil count at 15 mg/kg, ip pretreated with isoproterenol for 3 days followed by compound addition and measured after 3 days; format: functional, organism-based; conditions: time 3.0 day
[16] = test system: Mus musculus; test: Cardioprotective activity against isoproterenol-induced myocardial injury in C57/6J mouse model assessed as reduction in cardiac swelling size at 15 mg/kg, ip pretreated with isoproterenol for 3 days followed by compound addition and measured after 3 days (reference value: 5.15 millimeter); format: functional; conditions: time 3 day
[17] = Half life in male C57/6J mouse at 15 mg/kg, ip measured upto 24 hrs by LC-MS/MS analysis; format: ADME, organism-based; conditions: in vivo
[18] = test system: H9c2; test: Induction of ATP production in isoproterenol-induced rat H9c2 cells at 0.1 micromol/L by fluorescence based analysis; format: functional; conditions: dose 0.1 µmol/L
[19] = test system: Mus musculus; test: Cardioprotective activity against isoproterenol-induced myocardial injury in C57/6J mouse model assessed as decrease in heart weight ratio at 15 mg/kg, ip pretreated with isoproterenol for 3 days followed by compound addition and measured after 3 days (reference value: 0.56 %); format: functional; parameters: scale not given: the % may be the effect or the level left; conditions: time 3 day
[20] = test system: H9c2; test: Induction of apoptosis in isoproterenol-induced rat H9c2 cells assessed as late apoptotic cells at 0.1 micromol/L by annexin V-FITC and PI staining based flow cytometry analysis (reference value: 11.49%); format: toxicity, cell-based; conditions: h9c2, 0.1 µM, dose 0.1 µmol/L
[21] = test system: H9c2; test: Inhibition of ROS production in isoproterenol-induced rat H9c2 cells assessed as reduction in DCF value at 0.1 uM by DCFH-DA staining based flow cytometry analysis (reference value: 371.9); format: functional
[22] = Metabolic stability in mouse liver microsomes assessed as parent compound remaining measured after 45 mins in absence of NADPH regenerating system by LC-MS/MS analysis; format: ADME, Microsome; conditions: read-out: Stability
[23] = Metabolic stability in mouse liver microsomes assessed as parent compound remaining measured after 30 mins in absence of NADPH regenerating system by LC-MS/MS analysis; format: ADME, Microsome; conditions: read-out: Stability
[24] = Metabolic stability in mouse liver microsomes assessed as parent compound remaining measured after 60 mins in absence of NADPH regenerating system by LC-MS/MS analysis; format: ADME, Microsome; conditions: read-out: Stability
[25] = test system: H9c2; test: Upregulation of Ho-1 level in isoproterenol-induced rat H9c2 cells at 0.01 to 1 uM by Western blot analysis; format: functional, cell-based; conditions: dose 0.01-1 µM
[26] = Cmax in male C57/6J mouse at 15 mg/kg, ip measured upto 24 hrs by LC-MS/MS analysis; format: ADME, organism-based; conditions: in vivo
[27] = Metabolic stability in mouse liver microsomes assessed as parent compound remaining measured after 0.5 mins in absence of NADPH regenerating system by LC-MS/MS analysis; format: ADME, Microsome; conditions: read-out: Stability
[28] = Metabolic stability in mouse liver microsomes assessed as clearance measured upto 60 mins in presence of NADPH regenerating system by LC-MS/MS analysis; format: ADME, Microsome; conditions: read-out: CLH
[29] = test system: Mus musculus; test: Cardioprotective activity against isoproterenol-induced myocardial injury in C57/6J mouse model assessed as reduction in neutrophil ratio at 15 mg/kg, ip pretreated with isoproterenol for 3 days followed by compound addition and measured after 3 days; format: functional, organism-based; conditions: time 3.0 day
[30] = AUC infinity in male C57/6J mouse at 15 mg/kg, ip measured upto 24 hrs by LC-MS/MS analysis; format: ADME, organism-based; conditions: in vivo
[31] = Metabolic stability in mouse liver microsomes assessed as parent compound remaining measured after 30 mins in presence of NADPH regenerating system by LC-MS/MS analysis; format: ADME, Microsome; conditions: read-out: Stability
[32] = test system: Mus musculus; test: Cardioprotective activity against isoproterenol-induced myocardial injury in C57/6J mouse model assessed as suppression of mTORC1 overexpression at 15 mg/kg, ip pretreated with isoproterenol for 3 days followed by compound addition and measured after 3 days by immunohistochemistry analysis; format: functional, organism-based; conditions: time 3.0 day
[33] = Metabolic stability in mouse liver microsomes assessed as parent compound remaining measured after 45 mins in presence of NADPH regenerating system by LC-MS/MS analysis; format: ADME, Microsome; conditions: read-out: Stability
[34] = Metabolic stability in mouse liver microsomes assessed as parent compound remaining measured after 15 mins in absence of NADPH regenerating system by LC-MS/MS analysis; format: ADME, Microsome; conditions: read-out: Stability
[35] = test system: Mus musculus; test: Cardioprotective activity against isoproterenol-induced myocardial injury in C57/6J mouse model assessed as effect on cTNI level in serum at 15 mg/kg, ip pretreated with isoproterenol for 3 days followed by compound addition and measured after 3 days by automatic biochemical analysis; format: functional, organism-based; conditions: time 3.0 day
[36] = test system: H9c2; test: Induction of autophagy in isoproterenol-induced rat H9c2 cells transfected with GFP-tagged LC3 assessed as increase in number of green fluorescence by confocal microscopy analysis; format: functional, cell-based
[37] = test system: Mus musculus; test: Cardioprotective activity against isoproterenol-induced myocardial injury in C57/6J mouse model assessed as decrease in pericardial thickness at 15 mg/kg, ip pretreated with isoproterenol for 3 days followed by compound addition and measured after 3 days by H and E staining based analysis; format: functional, organism-based; conditions: time 3.0 day
[38] = test system: Mus musculus; test: Cardioprotective activity against isoproterenol-induced myocardial injury in C57/6J mouse model assessed as inhibition of collagen fiber proliferation at 15 mg/kg, ip pretreated with isoproterenol for 3 days followed by compound addition and measured after 3 days by masson staining based analysis; format: functional, organism-based; conditions: time 3.0 day
[39] = test system: Mus musculus; test: Cardioprotective activity against isoproterenol-induced myocardial injury in C57/6J mouse model assessed as reduction in CK value in serum at 15 mg/kg, ip pretreated with isoproterenol for 3 days followed by compound addition and measured after 3 days by automatic biochemical analysis; format: functional, organism-based; conditions: time 3.0 day
[40] = Apparent volume of distribution during terminal phase in male C57/6J mouse at 15 mg/kg, ip measured upto 24 hrs by LC-MS/MS analysis; format: ADME, organism-based; conditions: in vivo, read-out: Vz/F
[41] = Metabolic stability in mouse liver microsomes assessed as half life measured upto 60 mins in presence of NADPH regenerating system by LC-MS/MS analysis; format: ADME, Microsome
[42] = test system: H9c2; test: Cytotoxicity against isoproterenol-induced rat H9c2 cells assessed as cell viability at 0.001 to 1 uM under normoxia condition by CCK-8 method; format: toxicity, cell-based; conditions: h9c2, 1 µM, dose 0.001-1 µM
[43] = test system: H9c2; test: Upregulation of cytochrome-c level in isoproterenol-induced rat H9c2 cells at 0.01 to 1 uM by Western blot analysis; format: functional, cell-based; conditions: dose 0.01-1 µM
[44] = test system: H9c2; test: Induction of autophagy in isoproterenol-induced rat H9c2 cells assessed as increase in LC3-I to LC3-II conversion by confocal microscopy based analysis; format: functional, cell-based
[45] = test system: H9c2; test: Induction of apoptosis in isoproterenol-induced rat H9c2 cells assessed as early apoptotic cells at 0.1 micromol/L by annexin V-FITC and PI staining based flow cytometry analysis (reference value: 10.37%); format: toxicity, cell-based; conditions: h9c2, 0.1 µM, dose 0.1 µmol/L
[46] = Metabolic stability in mouse liver microsomes assessed as parent compound remaining measured after 0.5 mins in presence of NADPH regenerating system by LC-MS/MS analysis; format: ADME, Microsome; conditions: read-out: Stability
[47] = Dose normalized AUClast in male C57/6J mouse at 15 mg/kg, ip measured upto 24 hrs by LC-MS/MS analysis; format: ADME, organism-based; conditions: in vivo
[48] = test system: Mus musculus; test: Cardioprotective activity against isoproterenol-induced myocardial injury in C57/6J mouse model assessed as reduction in neutrophil count at 15 mg/kg, ip pretreated with isoproterenol for 3 days followed by compound addition and measured after 3 days; format: functional, organism-based; conditions: time 3.0 day
[49] = test system: H9c2; test: Induction of autophagy in isoproterenol-induced rat H9c2 cells assessed as downregulation of P62 expression by Western blot analysis; format: functional, cell-based
[50] = test system: Mus musculus; test: Cardioprotective activity against isoproterenol-induced myocardial injury in C57/6J mouse model assessed as appearance of clear cell boundaries in heart at 15 mg/kg, ip pretreated with isoproterenol for 3 days followed by compound addition and measured after 3 days by H and E staining based analysis; format: functional, organism-based; conditions: time 3.0 day
[51] = test system: H9c2; test: Downregulation of mTORC1 level in isoproterenol-induced rat H9c2 cells by Western blot analysis; format: functional, cell-based; conditions: dose 0.01-1 µM
[52] = Metabolic stability in mouse liver microsomes assessed as parent compound remaining measured after 15 mins in presence of NADPH regenerating system by LC-MS/MS analysis; format: ADME, Microsome; conditions: read-out: Stability

## CCC(CC)O[C@@H]1C=C(C(=O)O)C[C@H](N)[C@H]1NC(C)=O [OSELTAMIVIR CARBOXYLATE]
[1]
  Time: 7.15 min

## CCC(CC)O[C@@H]1C=C(C(=O)OCCN2CCNCC2)C[C@H](N)[C@H]1NC(C)=O
[2]
  Activity: Non-Toxic

## CCC(CC)O[C@@H]1C=C(C(=O)OCCN2CCOCC2)C[C@H](N)[C@H]1NC(C)=O
[3]
  Activity: Non-Toxic
[4]
  Papp: 44 ×10⁻⁶ cm/s
[5]
  remaining at 1 h: 77.2%
[6]
  AUC(0-t) at 24 h: 2080 ng·h/mL
[7]
  Activity: Active
[8]
  Activity: Active
[9]
  Activity: Active
[10]
  Activity: Active
[11]
  Papp: > 20 ×10⁻⁶ cm/s
[12]
  MRT inf: 1.01 h
[13]
  Tmax: 0.25 h
[1]
  Time: 3.43 min
[14]
  CL/F: 120 mL/min/kg
[15]
  Activity: Active
[16]
  Activity: 4.35 mm
[2]
  Activity: Non-Toxic
[17]
  half-life: 2.37 h
[18]
  Activity: 48.9 nmol/mg
[19]
  Activity: 0.46%
[20]
  Activity: 0.15%
[21]
  Activity: 203.6
[22]
  remaining at 0.75 h: 104%
[23]
  remaining at 0.5 h: 109%
[24]
  remaining at 1 h: 97.2%
[25]
  Activity: Active
[26]
  Cmax: 2380 ng/mL
[27]
  remaining at 0.5 min: 100%
[28]
  microsomal CLint: 7.53 µL/min/mg
[29]
  Activity: Active
[30]
  AUC(0-inf): 2100 ng·h/mL
[31]
  remaining at 0.5 h: 83.9%
[32]
  Activity: Active
[33]
  remaining at 0.75 h: 83%
[34]
  remaining at 0.25 h: 106%
[35]
  Activity: Active
[36]
  Activity: Active
[37]
  Activity: Active
[38]
  Activity: Active
[39]
  Activity: Active
[40]
  Vd/F: 24 L/kg
[41]
  half-life: 3.07 h
[42]
  Activity: Non-Toxic
[43]
  Activity: Active
[44]
  Activity: Active
[45]
  Activity: 6.07%
[46]
  remaining at 0.5 min: 100%
[47]
  AUClast/dose: 139 kg·ng·h/mL/mg
[48]
  Activity: Active
[49]
  Activity: Active
[50]
  Activity: Active
[51]
  Activity: Dose-Dependent Effect
[52]
  remaining at 0.25 h: 89.9%
